Reference: the NIST ThermoML archive (doi:10.1021/je700640r)
Numbers after ± are expanded uncertainties.

Assay: activity coefficient (dimensionless); of the first substance listed, at infinite dilution; xn = mol fraction of the nth substance listed
Conditions: Liquid, Chromatography, x1 = 0

Question: What does the source list for `CCOC(C)=O` [ethyl acetate] + CCC[n+]1ccn(C)c1C.F[B-](F)(F)F?
Answer: activity coefficient (303.15 K): 8.86 ± 0.77; activity coefficient (313.15 K): 8.84 ± 0.76; activity coefficient (323.15 K): 8.79 ± 0.76; activity coefficient (333.15 K): 8.75 ± 0.76; activity coefficient (343.15 K): 8.71 ± 0.75; activity coefficient (353.15 K): 8.66 ± 0.75; activity coefficient (363.15 K): 8.63 ± 0.74

Question: For `CC(C)=O` [acetone] + CCC[n+]1ccn(C)c1C.F[B-](F)(F)F, which activity coefficient (303.15 K) is on record?
Answer: Its activity coefficient is 2.47 ± 0.21.

Question: And the activity coefficient (313.15 K)?
Answer: The activity coefficient was 2.53 ± 0.22.

Question: And the activity coefficient (323.15 K)?
Answer: Its activity coefficient is 2.55 ± 0.22.

Question: What about the activity coefficient (333.15 K) of the same compound?
Answer: Its activity coefficient is 2.61 ± 0.23.

Question: What about the activity coefficient (343.15 K) of the same compound?
Answer: Its activity coefficient is 2.66 ± 0.23.

Question: What about the activity coefficient (353.15 K) of the same compound?
Answer: Its activity coefficient is 2.71 ± 0.23.

Question: What about the activity coefficient (363.15 K) of the same compound?
Answer: The activity coefficient was 2.74 ± 0.24.

Question: Which activity coefficient (313.15 K) does the source give for `CCCCCO` [pentan-1-ol] + CCC[n+]1ccn(C)c1C.F[B-](F)(F)F here?
Answer: Its activity coefficient is 6.2 ± 0.54.

Question: And the activity coefficient (323.15 K)?
Answer: Its activity coefficient is 5.31 ± 0.46.

Question: What about the activity coefficient (333.15 K) of the same compound?
Answer: Its activity coefficient is 4.65 ± 0.4.

Question: And the activity coefficient (343.15 K)?
Answer: Its activity coefficient is 4.05 ± 0.35.

Question: What about the activity coefficient (353.15 K) of the same compound?
Answer: The activity coefficient was 3.68 ± 0.32.

Question: And the activity coefficient (363.15 K)?
Answer: Its activity coefficient is 3.12 ± 0.27.

Question: What does the source list for `CCCO` [propan-1-ol] + CCC[n+]1ccn(C)c1C.F[B-](F)(F)F?
Answer: activity coefficient (303.15 K): 3.26 ± 0.28; activity coefficient (313.15 K): 3.01 ± 0.26; activity coefficient (323.15 K): 2.81 ± 0.24; activity coefficient (333.15 K): 2.59 ± 0.22; activity coefficient (343.15 K): 2.37 ± 0.2; activity coefficient (353.15 K): 2.19 ± 0.19; activity coefficient (363.15 K): 1.88 ± 0.16

Question: For `CCC(C)O` (configuration not stated) [butan-2-ol] + CCC[n+]1ccn(C)c1C.F[B-](F)(F)F, which activity coefficient (303.15 K) is on record?
Answer: Its activity coefficient is 4.28 ± 0.37.

Question: What about the activity coefficient (313.15 K) of the same compound?
Answer: Its activity coefficient is 3.99 ± 0.34.

Question: And the activity coefficient (323.15 K)?
Answer: Its activity coefficient is 3.67 ± 0.32.

Question: What about the activity coefficient (333.15 K) of the same compound?
Answer: The activity coefficient was 3.3 ± 0.28.

Question: What about the activity coefficient (343.15 K) of the same compound?
Answer: The activity coefficient was 2.87 ± 0.25.

Question: And the activity coefficient (353.15 K)?
Answer: The activity coefficient was 2.5 ± 0.22.

Question: What about the activity coefficient (363.15 K) of the same compound?
Answer: The activity coefficient was 2.13 ± 0.18.

Question: Which activity coefficient (313.15 K) does the source give for `CC(C)CCO` [3-methylbutan-1-ol] + CCC[n+]1ccn(C)c1C.F[B-](F)(F)F here?
Answer: Its activity coefficient is 4.91 ± 0.42.

Question: What about the activity coefficient (323.15 K) of the same compound?
Answer: The activity coefficient was 4.46 ± 0.39.

Question: And the activity coefficient (333.15 K)?
Answer: Its activity coefficient is 4.18 ± 0.36.

Question: And the activity coefficient (343.15 K)?
Answer: The activity coefficient was 3.78 ± 0.33.

Question: And the activity coefficient (353.15 K)?
Answer: The activity coefficient was 3.42 ± 0.29.

Question: And the activity coefficient (363.15 K)?
Answer: The activity coefficient was 3.02 ± 0.26.

Question: Which activity coefficient (303.15 K) does the source give for `C1CCOC1` [tetrahydrofuran] + CCC[n+]1ccn(C)c1C.F[B-](F)(F)F here?
Answer: The activity coefficient was 6.03 ± 0.52.

Question: And the activity coefficient (313.15 K)?
Answer: Its activity coefficient is 5.98 ± 0.52.

Question: What about the activity coefficient (323.15 K) of the same compound?
Answer: The activity coefficient was 5.95 ± 0.51.

Question: What about the activity coefficient (333.15 K) of the same compound?
Answer: The activity coefficient was 5.92 ± 0.51.

Question: And the activity coefficient (343.15 K)?
Answer: The activity coefficient was 5.88 ± 0.51.

Question: And the activity coefficient (353.15 K)?
Answer: Its activity coefficient is 5.82 ± 0.5.

Question: What about the activity coefficient (363.15 K) of the same compound?
Answer: The activity coefficient was 5.78 ± 0.5.

Question: Which activity coefficient (303.15 K) does the source give for `CC#N` [acetonitrile] + CCC[n+]1ccn(C)c1C.F[B-](F)(F)F here?
Answer: The activity coefficient was 1.4 ± 0.12.

Question: And the activity coefficient (313.15 K)?
Answer: Its activity coefficient is 1.39 ± 0.12.

Question: And the activity coefficient (323.15 K)?
Answer: The activity coefficient was 1.38 ± 0.12.

Question: What about the activity coefficient (333.15 K) of the same compound?
Answer: The activity coefficient was 1.37 ± 0.12.

Question: What about the activity coefficient (343.15 K) of the same compound?
Answer: Its activity coefficient is 1.36 ± 0.11.

Question: And the activity coefficient (353.15 K)?
Answer: Its activity coefficient is 1.35 ± 0.11.

Question: What about the activity coefficient (363.15 K) of the same compound?
Answer: The activity coefficient was 1.34 ± 0.11.

Question: What does the source list for `ClCCl` [dichloromethane] + CCC[n+]1ccn(C)c1C.F[B-](F)(F)F?
Answer: activity coefficient (303.15 K): 1.67 ± 0.14; activity coefficient (313.15 K): 1.74 ± 0.15; activity coefficient (323.15 K): 1.84 ± 0.16; activity coefficient (333.15 K): 1.93 ± 0.17; activity coefficient (343.15 K): 2.01 ± 0.17; activity coefficient (353.15 K): 2.09 ± 0.18; activity coefficient (363.15 K): 2.17 ± 0.19

Question: Which activity coefficient (303.15 K) does the source give for `CCO` [ethanol] + CCC[n+]1ccn(C)c1C.F[B-](F)(F)F here?
Answer: The activity coefficient was 1.86 ± 0.16.

Question: What about the activity coefficient (313.15 K) of the same compound?
Answer: The activity coefficient was 1.68 ± 0.14.

Question: What about the activity coefficient (323.15 K) of the same compound?
Answer: Its activity coefficient is 1.6 ± 0.14.

Question: What about the activity coefficient (333.15 K) of the same compound?
Answer: The activity coefficient was 1.51 ± 0.13.

Question: And the activity coefficient (343.15 K)?
Answer: The activity coefficient was 1.44 ± 0.12.

Question: What about the activity coefficient (353.15 K) of the same compound?
Answer: The activity coefficient was 1.35 ± 0.11.

Question: And the activity coefficient (363.15 K)?
Answer: Its activity coefficient is 1.18 ± 0.098.

Question: With `ClC(Cl)(Cl)Cl` [tetrachloromethane] + CCC[n+]1ccn(C)c1C.F[B-](F)(F)F as the compound, how does the activity coefficient (303.15 K) read?
Answer: Its activity coefficient is 8.11 ± 0.7.

Question: What about the activity coefficient (313.15 K) of the same compound?
Answer: Its activity coefficient is 8.63 ± 0.74.

Question: What about the activity coefficient (323.15 K) of the same compound?
Answer: Its activity coefficient is 9.13 ± 0.79.

Question: And the activity coefficient (333.15 K)?
Answer: Its activity coefficient is 9.58 ± 0.83.

Question: And the activity coefficient (343.15 K)?
Answer: Its activity coefficient is 10 ± 0.86.

Question: And the activity coefficient (353.15 K)?
Answer: Its activity coefficient is 10.4 ± 0.9.

Question: And the activity coefficient (363.15 K)?
Answer: The activity coefficient was 10.7 ± 0.92.

Question: Which activity coefficient (303.15 K) does the source give for `CC(C)O` [propan-2-ol] + CCC[n+]1ccn(C)c1C.F[B-](F)(F)F here?
Answer: Its activity coefficient is 2.62 ± 0.23.

Question: What about the activity coefficient (313.15 K) of the same compound?
Answer: The activity coefficient was 2.53 ± 0.22.

Question: What about the activity coefficient (323.15 K) of the same compound?
Answer: The activity coefficient was 2.45 ± 0.21.

Question: What about the activity coefficient (333.15 K) of the same compound?
Answer: Its activity coefficient is 2.33 ± 0.2.

Question: And the activity coefficient (343.15 K)?
Answer: Its activity coefficient is 2.21 ± 0.19.

Question: What about the activity coefficient (353.15 K) of the same compound?
Answer: The activity coefficient was 2.04 ± 0.18.

Question: What about the activity coefficient (363.15 K) of the same compound?
Answer: The activity coefficient was 1.86 ± 0.16.

Question: Which activity coefficient (303.15 K) does the source give for `C1COCCO1` [1,4-dioxane] + CCC[n+]1ccn(C)c1C.F[B-](F)(F)F here?
Answer: Its activity coefficient is 2.96 ± 0.26.

Question: And the activity coefficient (313.15 K)?
Answer: The activity coefficient was 3.08 ± 0.27.

Question: What about the activity coefficient (323.15 K) of the same compound?
Answer: Its activity coefficient is 3.14 ± 0.27.

Question: And the activity coefficient (333.15 K)?
Answer: Its activity coefficient is 3.17 ± 0.27.

Question: And the activity coefficient (343.15 K)?
Answer: The activity coefficient was 3.24 ± 0.28.

Question: And the activity coefficient (353.15 K)?
Answer: Its activity coefficient is 3.29 ± 0.28.

Question: What about the activity coefficient (363.15 K) of the same compound?
Answer: The activity coefficient was 3.35 ± 0.29.

Question: What does the source list for `CC(C)CO` [2-methyl-1-propanol] + CCC[n+]1ccn(C)c1C.F[B-](F)(F)F?
Answer: activity coefficient (303.15 K): 4.17 ± 0.36; activity coefficient (313.15 K): 3.87 ± 0.33; activity coefficient (323.15 K): 3.47 ± 0.3; activity coefficient (333.15 K): 3.07 ± 0.26; activity coefficient (343.15 K): 2.62 ± 0.23; activity coefficient (353.15 K): 2.38 ± 0.2; activity coefficient (363.15 K): 2.03 ± 0.17

Question: What does the source list for `CO` [methanol] + CCC[n+]1ccn(C)c1C.F[B-](F)(F)F?
Answer: activity coefficient (303.15 K): 0.898 ± 0.074; activity coefficient (313.15 K): 0.869 ± 0.072; activity coefficient (323.15 K): 0.823 ± 0.069; activity coefficient (333.15 K): 0.777 ± 0.065; activity coefficient (343.15 K): 0.713 ± 0.061; activity coefficient (353.15 K): 0.684 ± 0.059; activity coefficient (363.15 K): 0.642 ± 0.056

Question: Which activity coefficient (303.15 K) does the source give for `ClC(Cl)Cl` [trichloromethane] + CCC[n+]1ccn(C)c1C.F[B-](F)(F)F here?
Answer: The activity coefficient was 1.14 ± 0.094.

Question: What about the activity coefficient (313.15 K) of the same compound?
Answer: The activity coefficient was 1.29 ± 0.11.

Question: What about the activity coefficient (323.15 K) of the same compound?
Answer: Its activity coefficient is 1.4 ± 0.12.

Question: And the activity coefficient (333.15 K)?
Answer: Its activity coefficient is 1.52 ± 0.13.

Question: And the activity coefficient (343.15 K)?
Answer: Its activity coefficient is 1.65 ± 0.14.

Question: What about the activity coefficient (353.15 K) of the same compound?
Answer: The activity coefficient was 1.78 ± 0.15.

Question: And the activity coefficient (363.15 K)?
Answer: Its activity coefficient is 1.91 ± 0.16.

Question: What does the source list for `CCCCO` [butan-1-ol] + CCC[n+]1ccn(C)c1C.F[B-](F)(F)F?
Answer: activity coefficient (303.15 K): 5.05 ± 0.44; activity coefficient (313.15 K): 4.67 ± 0.4; activity coefficient (323.15 K): 4.2 ± 0.36; activity coefficient (333.15 K): 3.73 ± 0.32; activity coefficient (343.15 K): 3.2 ± 0.28; activity coefficient (353.15 K): 2.67 ± 0.23; activity coefficient (363.15 K): 2.27 ± 0.2
